# From patent US8546357B2, “Boron-containing small molecules for controlling ectoparasites” (priority 2011, dated 2013)
# System: cat flea (Ctenocephalides felis)
# Assay: Therapeutic efficacy and speed of kill against adult cat flea infestations on dogs, oral
# Format: in vivo
# Details: oral capsule 20 mg/kg
# Method: The therapeutic efficacy and speed of kill of 7, administered orally at a point dose of 20 mg/kg bodyweight, was evaluated against adult cat flea (Ctenocephalides felis) infestations on dogs. Eighteen (18) male and female beagle dogs were allocated to one of six treatment groups (n=3 dogs per group). Groups 1, 2 and 3 were untreated, negative controls and groups 4, 5 and 6 received 7. On Day −1, all dogs were infested with approximately 100 unfed, adult fleas (approximately 50% male and 50% female). On Day 0, dogs in groups 4, 5 and 6 were orally administered gelatin capsules containing 7, at a point dose of 20 mg/kg (50% technical active, 47% microcrystalline cellulose and 3% croscarmellose sodium, w/w). At eight (8) hours post-treatment, fleas were counted and removed from dogs in groups 1 and 4; at twelve (12) hours post-treatment, fleas were counted and removed from dogs in groups 2 and 5; and at twenty-four (24) hours post-treatment, fleas were counted and removed from dogs in groups 3 and 6. GM percent efficacy of treatments against fleas was calculated using the following formula: […]
compound,measurement,setting,value
"Cc1cc(C2=NOC(c3cc(Cl)c(Cl)c(Cl)c3)(C(F)(F)F)C2)ccc1C(=O)NCc1ccc2c(c1)B(O)OC2(C)C (stereo not drawn) [Compound 7, N-((1-Hydroxy-3,3-dimethyl-1,3-dihydrobenzo[c][1,2]oxaborol-6-yl)methyl)-2-methyl-4-(5-(3,4,5-trichlorophenyl)-5-(trifluoromethyl)-4,5-dihydroisoxazol-3-yl)benzamide]",% efficacy,8 hours post-treatment,(90.4) %
same,Geometric mean group live flea counts,8 hours post-treatment,7.9
same,Geometric mean group live flea counts,12 hours post-treatment,0.0
same,% efficacy,24 hours post-treatment,(100) %
same,Geometric mean group live flea counts,24 hours post-treatment,0.0
same,knockdown against an existing flea infestation,eight (8) hours of treatment,rapid knockdown
